Data as given in PMC6843736 (Molecular Pain, 2019).
“And” between values parts separate entries of the source, which are not always exact repeats. Equal entries are not always repeated. Structures can show the parent of a compound that is named as a salt.

What was measured:
[1] = Pharmacokinetic/toxicokinetic study and BBB permeability in rats; format: in vivo, rat
rats = experiment: Observation of neurobehavioral adverse effects after single treatment in rats; format: in vivo, rat
[2] = system: rats with trigeminal chronic constriction injury (CCI); experiment: Whisker pad mechanical allodynia; format: in vivo, rat; conditions: for dose dependence of mechanical threshold at peak time: 2 h after treatment (gabapentin 1 h); for dose dependence of mechanical threshold at peak time / minimal dose required to restore mechanical threshold to baseline: i.p. or p.o.; for mechanical threshold 1 h after injection: ELB00824 3 mg/kg i.p. and/or gabapentin 0.3 mg/kg i.p., one-time dose; for peak time of mechanical threshold: i.p. or p.o. treatment; for effective dose decreasing neuropathic hypersensitivity: rodent trigeminal nerve injury models, pioglitazone i.p.; for attenuation of mechanical allodynia: doses as high as 1000 mg/kg
mice with TIC injury [3] = experiment: Whisker pad mechanical allodynia; format: in vivo, mouse; conditions: for allodynia compared to vehicle, ipsilateral side, week 6 / whisker pad mechanical threshold at 2 h post injection, week 3: ELB00824 10 mg/kg i.p., carbamazepine 30 mg/kg i.p.; for time of peak effect: week 3, one-time i.p. dose
mice with TIC injury [4] = experiment: Zero maze anxiety test in mouse chronic TIC model; format: in vivo; conditions: six weeks, 2 h post treatment; for time spent in the closed area of the maze: ELB00824 10 mg/kg, carbamazepine 30 mg/kg
human PPARɣ receptor = target: T1, human PPARɣ receptor (Homo sapiens, UniProt P37231); experiment: PPARɣ transactivation luciferase reporter assay in HEK 293 T cells; format: cell-based
T1 sequence (P37231 1-505): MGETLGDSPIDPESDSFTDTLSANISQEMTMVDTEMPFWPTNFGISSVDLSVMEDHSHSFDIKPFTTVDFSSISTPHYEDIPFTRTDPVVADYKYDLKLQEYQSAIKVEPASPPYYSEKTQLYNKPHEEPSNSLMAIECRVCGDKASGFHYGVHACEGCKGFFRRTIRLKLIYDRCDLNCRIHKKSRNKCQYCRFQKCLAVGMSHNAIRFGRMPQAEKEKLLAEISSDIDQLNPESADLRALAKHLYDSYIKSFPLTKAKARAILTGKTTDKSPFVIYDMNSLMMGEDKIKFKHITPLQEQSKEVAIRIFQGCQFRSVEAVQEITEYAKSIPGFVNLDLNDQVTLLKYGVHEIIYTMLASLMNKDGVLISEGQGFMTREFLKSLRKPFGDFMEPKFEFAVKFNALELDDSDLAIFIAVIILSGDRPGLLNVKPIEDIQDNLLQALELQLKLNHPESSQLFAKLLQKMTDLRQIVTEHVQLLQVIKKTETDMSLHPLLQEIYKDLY

mice with TIC injury [5] = experiment: Light/dark place preference anxiety test in mouse chronic TIC model; format: in vivo; conditions: six weeks; for latency to enter into the lighted chamber: two hours after injection
hERG potassium channel = hERG potassium channel (Homo sapiens, UniProt Q12809); experiment: In vitro cardiovascular toxicity study; format: biochemical
Sprague-Dawley rats = experiment: Preliminary 14-day repeat dose toxicity study in rats; format: in vivo, rat
[6] = system: mouse bone marrow erythroblast; experiment: Genotoxicity study, micronucleus test; format: in vivo; conditions: up to highest concentration 500 mg/kg, intraperitoneal
rat = conditions: i.p.; cited from earlier work
[7] = Sprague-Dawley, rat, plasma, po, 10 mg/kg
[8] = from AUC in μM·h, rat, 10 mg/kg i.p.
[9] = from AUC in μM·h, rat, 10 mg/kg i.p., 10 mg/kg
[10] = from AUC in μg·h/mL, rat, 10 mg/kg i.p.
[11] = from Cmax in μM, rat, 10 mg/kg i.p.
[12] = from Cmax in μM, rat, 10 mg/kg i.p., 10 mg/kg
[13] = from Cmax in μg/mL, rat, 10 mg/kg i.p.
[14] = male, Sprague-Dawley, rat, plasma, ip, 10 mg/kg
[15] = rat brain, 10 mg/kg i.p., 10 mg/kg

Chain of hERG potassium channel (Q12809 whole entry): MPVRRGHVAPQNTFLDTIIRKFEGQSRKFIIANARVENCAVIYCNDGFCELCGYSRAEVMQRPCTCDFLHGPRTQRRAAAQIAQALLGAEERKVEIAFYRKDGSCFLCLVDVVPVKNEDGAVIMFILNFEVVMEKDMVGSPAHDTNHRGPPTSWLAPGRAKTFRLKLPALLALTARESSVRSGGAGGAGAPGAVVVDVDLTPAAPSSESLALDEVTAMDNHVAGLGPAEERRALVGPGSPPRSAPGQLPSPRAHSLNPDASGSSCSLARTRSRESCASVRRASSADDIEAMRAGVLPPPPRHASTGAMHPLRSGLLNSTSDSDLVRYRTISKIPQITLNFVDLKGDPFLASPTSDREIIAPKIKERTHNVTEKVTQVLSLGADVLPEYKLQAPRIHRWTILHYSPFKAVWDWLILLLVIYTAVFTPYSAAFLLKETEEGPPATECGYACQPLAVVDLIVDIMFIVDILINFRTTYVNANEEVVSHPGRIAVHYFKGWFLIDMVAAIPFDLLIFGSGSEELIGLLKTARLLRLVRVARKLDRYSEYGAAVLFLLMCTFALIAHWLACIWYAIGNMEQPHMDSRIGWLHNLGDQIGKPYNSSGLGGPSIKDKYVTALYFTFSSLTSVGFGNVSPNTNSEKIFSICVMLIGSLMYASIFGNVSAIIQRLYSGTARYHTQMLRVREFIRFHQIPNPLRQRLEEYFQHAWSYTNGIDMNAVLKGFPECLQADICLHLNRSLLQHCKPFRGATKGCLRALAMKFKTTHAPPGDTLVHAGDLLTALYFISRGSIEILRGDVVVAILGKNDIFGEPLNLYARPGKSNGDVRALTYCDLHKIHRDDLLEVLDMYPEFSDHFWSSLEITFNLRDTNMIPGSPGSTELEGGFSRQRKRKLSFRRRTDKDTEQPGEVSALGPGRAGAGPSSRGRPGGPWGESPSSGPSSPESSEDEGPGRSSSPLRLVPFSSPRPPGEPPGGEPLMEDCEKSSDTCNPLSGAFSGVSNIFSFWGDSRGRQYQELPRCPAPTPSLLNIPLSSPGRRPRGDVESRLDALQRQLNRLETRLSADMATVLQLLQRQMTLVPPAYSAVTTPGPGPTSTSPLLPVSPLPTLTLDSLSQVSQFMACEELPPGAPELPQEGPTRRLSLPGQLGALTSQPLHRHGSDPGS

## CCc1ccc(CC/C=C/c2ccc3c(c2)C(=O)CC3)cc1 [ELB00824, (E)-6–(4-(4-ethylphenyl)but-1-en-1-yl)-2,3-dihydro-1H-inden-1-one]
[1]; Sprague-Dawley, rat, brain, po, 10 mg/kg
  Tmax: 3 h
[1]; [7]
  AUC(0-t): 3030 ng·h/mL
  Cmax: 350 ng/mL
  Tmax: 1 h
[1]; [8]
  Plasma AUC0–24h ratio ELB00824/Pioglitazone: 0.3
  Plasma AUC0–24h ratio ELB00824/Rosiglitazone: 0.4
[1]; [9]
  Brain AUC0–24h ratio ELB00824/Pioglitazone: 15
  Brain AUC0–24h ratio ELB00824/Rosiglitazone: 21
[1]; [10]
  Brain AUC0–24h ratio ELB00824/Pioglitazone: 11
  Brain AUC0–24h ratio ELB00824/Rosiglitazone: 17
  Plasma AUC0–24h ratio ELB00824/Pioglitazone: 0.2
  Plasma AUC0–24h ratio ELB00824/Rosiglitazone: 0.3
[1]; [11]
  Plasma Cmax ratio ELB00824/Pioglitazone: 0.2
  Plasma Cmax ratio ELB00824/Rosiglitazone: 0.3
[1]; [12]
  Brain Cmax ratio ELB00824/Pioglitazone: 5.4
  Brain Cmax ratio ELB00824/Rosiglitazone: 6.7
[1]; [13]
  Brain Cmax ratio ELB00824/Pioglitazone: 4.0
  Brain Cmax ratio ELB00824/Rosiglitazone: 5.5
  Plasma Cmax ratio ELB00824/Pioglitazone: 0.1
  Plasma Cmax ratio ELB00824/Rosiglitazone: 0.2
[1]; male, Sprague-Dawley, rat, brain, po, 10 mg/kg
  concentration at 1 h: 1160 ng/mL and 4.01 µM
[1]; male, Sprague-Dawley, rat, brain, po, 30 mg/kg
  concentration at 1 h: 4110 ng/mL and 14.2 µM
[1]; male, Sprague-Dawley, rat, brain, po, 120 mg/kg
  concentration at 1 h: 7570 ng/mL and 26.1 µM
[1]; male, Sprague-Dawley, rat, brain, po, 450 mg/kg
  concentration at 1 h: 11000 ng/mL and 38 µM
[1]; male, Sprague-Dawley, rat, brain/plasma, ip, 10 mg/kg
  Kp: 5.13
[1]; [14]
  AUC(0-t): 6550 ng·h/mL and 22.6 µM·h
  Cmax: 1120 ng/mL and 3.85 µM
  Tmax: 0.5 h
[1]; male, Sprague-Dawley, rat, plasma, po, 10 mg/kg
  concentration at 1 h: 270 ng/mL and 940 nM
[1]; male, Sprague-Dawley, rat, plasma, po, 30 mg/kg
  concentration at 1 h: 820 ng/mL and 2.81 µM
[1]; male, Sprague-Dawley, rat, plasma, po, 120 mg/kg
  concentration at 1 h: 1510 ng/mL and 5.2 µM
[1]; male, Sprague-Dawley, rat, plasma, po, 450 mg/kg
  concentration at 1 h: 2200 ng/mL and 7.57 µM
[1]; rat brain, 10 mg/kg p.o.
  Brain AUC0–24h: 10370 ng·h/mL
  Brain Cmax: 1.82 µg/mL
[1]; rat plasma, 10 mg/kg i.p.
  plasma Cmax and AUC0–24h relative to those of pioglitazone or rosiglitazone: less than 0.3 fold
[1]; rat, 10 mg/kg
  relative brain bioavailability (AUC0–24h) of oral versus i.p. injection: 31%
  relative plasma bioavailability (AUC0–24h) of oral versus i.p. injection: 46%
rats; doses of up to 1000 mg/kg i.p. or p.o., one week observation
  observable neurobehavioral adverse effects: not discernable
[2]; 2.5 mg topical (7% cream, 50 mg/cm^2)
  mechanical threshold at 1.5 h: 8.9 ± 1.5 g
[2]; 5 mg topical (7% cream, 100 mg/cm^2)
  mechanical threshold at 1.5 h: 19.7 ± 3.1 g
[2]; 10 mg/kg i.p.
  mechanical threshold at 3 h after treatment: 3.5 ± 0.9 g
[2]; 10 mg/kg i.p., 1 h, 5-14 days post-CCI
  ipsilateral whisker pad mechanical threshold: 11.4 ± 2.2 g
[2]; 10 mg/kg i.p., 2 h, ELB00824 only
  ipsilateral whisker pad mechanical threshold (peak): 14.9 ± 2.5 g
[2]; 10 mg/kg p.o.
  mechanical threshold at 3 h after treatment: 2.8 ± 0.5 g
[2]
  dose dependence of mechanical threshold at peak time: dose-dependently increased the mechanical threshold
  mechanical threshold 1 h after injection: 2.5 ± 0.3 g
  minimal dose required to restore mechanical threshold to baseline: 10 mg/kg
  peak time of mechanical threshold: 2 h
  effective dose decreasing neuropathic hypersensitivity: 10 mg/kg
[2]; higher dose topical
  onset of symptom relief: 0.5 h
[2]; systematic treatment, either i.p. or p.o., 10 mg/kg
  onset of symptom relief: 1 h
[2]; topical treatment
  mechanical threshold at 3 h after treatment: 8.9 ± 1.1 g
Mice with TIC injury [3]; 10 mg/kg i.p.
  allodynia compared to vehicle, contralateral side, week 6: significantly improved allodynia
Mice with TIC injury [3]; 2 h post injection
  mechanical threshold relative to carbamazepine, week 3: 4.3 fold
Mice with TIC injury [3]
  allodynia compared to vehicle, ipsilateral side, week 6: significantly improved allodynia
  whisker pad mechanical threshold at 2 h post injection, week 3: 6 ± 0.0 g
  time of peak effect: 2 h
Mice with TIC injury [4]
  latency to move to the closed area: 11.6 ± 3.9 s
  time spent in the closed area of the maze: 103 ± 21 s
Human PPARɣ receptor
  maximal activities (% control), PPARɣ activation: 45 ± 4%
Mice with TIC injury [5]; compared with carbamazepine
  occupancy time and number of times that rearing occurred: less robust anti-anxiety behaviors
Mice with TIC injury [5]
  latency to enter into the lighted chamber: 10 ± 12 s
hERG potassium channel
  IC50: > 30 µM
Sprague-Dawley rats; day 15, male and female
  hematological, blood coagulation and serum biochemistry parameters (55 parameters) compared with controls: No significant changes
Sprague-Dawley rats; male 450 mg/kg group, day 15
  hemoglobin and hematocrit values vs control: slightly lower hemoglobin and hematocrit values
[6]
  chromosome damage in mouse bone marrow erythroblast: did not induce a significant increase of chromosome damage

## O=C(Nc1ccccc1)c1cc([N+](=O)[O-])ccc1Cl [GW9662, reference compound]
[2]; 10–30 mg/kg i.p. alone, 1 to 4 h after injection
  change of mechanical threshold: did not change mechanical threshold

## CCc1ccc(CCOc2ccc(CC3SC(=O)NC3=O)cc2)nc1 (stereo not shown) [Pioglitazone, pioglitazone hydrochloride, reference compound]
[1]; male, Sprague-Dawley, rat, brain, ip, 10 mg/kg
  Tmax: 1 h
[1]; [14]
  AUC(0-t): 34500 ng·h/mL and 87.7 µM·h
  Cmax: 9770 ng/mL and 24.9 µM
[1]; [15]
  Brain Cmax: 0.68 ± 0.14 μg/mL and 1.73 ± 0.22 μM
rats; 300 mg/kg i.p. or p.o., most rats, beginning one day after treatment
  toxic signs and symptoms: showed toxic signs and symptoms
[2]
  dose dependence of mechanical threshold at peak time: dose-dependently increased the mechanical threshold
  minimal dose required to restore mechanical threshold to baseline: 1000 mg/kg
  peak time of mechanical threshold: 2 h
  effective dose decreasing neuropathic hypersensitivity: 1000 mg/kg
rat
  rat LD50: 558 to 587 mg/kg

## CN(CCOc1ccc(CC2SC(=O)NC2=O)cc1)c1ccccn1 (stereo not shown) [Rosiglitazone, rosiglitazone, reference compound]
[1]; [14]
  AUC(0-t): 22800 ng·h/mL and 63.7 µM·h
  Cmax: 4500 ng/mL and 12.6 µM
[1]; [15]
  Brain Cmax: 0.50 ± 0.06 μg/mL and 1.41 ± 0.27 μM
[2]
  attenuation of mechanical allodynia: did not attenuate mechanical allodynia

## CC(=O)Nc1ccc(O)cc1 [acetaminophen, reference compound]
[2]
  attenuation of mechanical allodynia: neither acetaminophen nor ibuprofen attenuated mechanical allodynia

## NC(=O)N1c2ccccc2C=Cc2ccccc21 [carbamazepine, reference compound]
Mice with TIC injury [3]
  allodynia compared to vehicle, ipsilateral side, week 6: significantly improved allodynia
  whisker pad mechanical threshold at 2 h post injection, week 3: 1.4 ± 0.2 g
  time of peak effect: 2 h
Mice with TIC injury [4]
  latency to move to the closed area: significantly increased latency
  time spent in the closed area of the maze: did not show significant differences
Mice with TIC injury [4]; vs vehicle
  zone transitions: significantly more
Mice with TIC injury [5]
  latency to enter into the lighted chamber: decreased latency

## NCC1(CC(=O)O)CCCCC1 [gabapentin, reference compound]
[2]; 1 mg/kg single i.p. injection
  time at which threshold was reduced to previous allodynic levels: 2 h
[2]
  dose dependence of mechanical threshold at peak time: dose-dependently increased the mechanical threshold
  mechanical threshold 1 h after injection: 4.9 ± 1.2 g
  peak time of mechanical threshold: 1 h

## CC(C)Cc1ccc(C(C)C(=O)O)cc1 (stereo not shown) [ibuprofen, reference compound]
[2]
  attenuation of mechanical allodynia: neither acetaminophen nor ibuprofen attenuated mechanical allodynia
